Results taken from patent US20150328310A1, “METHODS AND COMPOSITIONS RELATING TO TREATMENT OF CANCER” (THE PENN STATE RESEARCH FOUNDATION, priority 2012, published 2015).
Read-outs that look alike come from different tables or passages of the source.

Experiments:
RKO = assay: Cell viability assay of ISC-4 combined with approved antitumor agents, RKO; format: cell-based, human; parameters: key: uncooperative (−); cooperative (+); synergistic (*); ambiguous (?); details: ISC-4 (1, 2, or 4 μM) plus therapy at putative EC12.5, EC25, EC50; compared to monoagent activity
Procedure: (§1) Cell lines are obtained from ATCC and cultured in ATCC-recommended media in a humidified incubator at 5% CO2 and 37° C. For cell viability assays, cells are seeded into 96-well black-walled plates at a concentration of 1×10^5 cells per mL in fresh media and in a volume of 100 μL per well. Cells are allowed to adhere overnight and are treated the next day as indicated. At endpoint, CellTiter-Glo (Promega) assays are performed according to the manufacturer's protocol, and the bioluminescent readout is recorded on an IVIS imaging system (Xenogen).
(§2) The SW480 and RKO human colon cancer cell lines are used for initial profiling based on their heterogeneous oncogenic genetic alterations.
(§3) Combinatorial activities of ISC-4 and each listed drug are compared to monoagent activities of each drug alone by cell viability assays and determined to be uncooperative (−), cooperative (+), synergistic (*), or ambiguous (?).

SW480 = assay: Cell viability assay of ISC-4 combined with approved antitumor agents, SW480; format: cell-based, human; parameters: key: uncooperative (−); cooperative (+); synergistic (*); ambiguous (?); details: ISC-4 (1, 2, or 4 μM) plus therapy at putative EC12.5, EC25, EC50; compared to monoagent activity
Procedure: as §1, §2, §3

[1] = system: SW480 and RKO colon cancer cell lines; details: estimated from the literature, dose used with ISC-4 in FIG. 2, cited from earlier work
[2] = Serum chemistry profiles of mice; format: in vivo; details: serum 2 days after last dose; ISC-4 3 mg/kg i.p., cetuximab 10 mg/kg i.v., twice a week for 2 weeks
Procedure: Athymic female nude mice (Charles River Laboratories) are inoculated with 1×10^6 of 5-FU-resistant RKO or HT-29 cells in each rear flank as a 200 μL suspension of 1:1 Matrigel (BD):PBS. Treatment is initiated once tumors reached a mean volume of […], intraperitoneal or intravenous injections are given at a total volume of 200 μL in DMSO. […] Tissue is paraffin-embedded and sectioned. H&E staining (Daiko) and TUNEL staining (Millipore) are carried out according to the manufacturer's protocols. For serum chemistry assays, 1 mL of blood is harvested from anesthetized mice by terminal cardiac puncture of the left ventricle. For serum chemistry, 500 μL is placed into a microfuge tube and allowed to clot for 30 minutes at room temperature followed by centrifugation. Serum is removed, centrifuged again to remove any additional debris prior to analysis.
Serum was collected 2 days following the last dose.

[3] = system: human colon cancer cell lines; assay: Cell cycle / sub-G1 DNA content analysis after ISC-4 treatment; format: cell-based
Procedure: (§4) For sub-G1 DNA content analysis, cells are trypsinized at the indicated time points and fixed in 80% ethanol at 4° C. for a minimum of 30 minutes. Fixed cells are then stained with propidium iodide in the presence of RNase and analyzed on an Epics Elite flow cytometer (Beckman Coulter).
The effect of ISC-4 treatment on cell cycle profiles of synchronous and asynchronous HCT116 (FIG. 1B) and HT-29 (FIG. 1C) cell lines is shown. […] Thus, ISC-4 has modest single agent activity against human colon cancer cells by causing cell death and a decrease in proliferation.

RKO cells = assay: Sub-G1 content by flow cytometry, combination; format: cell-based, human; details: zVAD-fmk 25 μM
Procedure: as §4

[4] = system: panel of human cancer cell lines; assay: Cell viability assay of ISC-4 in a panel of human cancer cell lines (72 hr); format: cell-based; details: human colon cancer cell lines with the exception of HT-29
Procedure: as §1, with “(Xenogen). For cell synchronization, cells are incubated with 200 ng/mL nocodazole for 16 hours prior to treatment. Chloroquine is obtained from Sigma. zVAD-fmk is obtained from Promega and used at a working concentration of 25 μM. ISC-4 is synthesized as described in Sharma, A. K., et al., J. of Med. Chem., 2008, 51(24):7820-7826.” for “(Xenogen).”
The in vitro activity of ISC-4 is tested in a panel of human cancer cell lines to characterize its spectrum of activity.
The isogenic HCT116 cell lines indicate that ISC-4 activity is likely p53- and Bax-independent.

Row | Molecule | Combinatorial effect of ISC-4 with the listed therapy, RKO (RKO) | Combinatorial effect of ISC-4 with the listed therapy, SW480 (SW480) | EC12.5 [1] | EC25 [1] | EC50 ([1]; read-out: EC50) [µM] | other results
1 | CC(C)C[C@H](NC(=O)[C@H](Cc1ccccc1)NC(=O)c1cnccn1)B(O)O [Bortezomib] | + | ? |  |  |  | 
2 | CC(=O)O[C@@]12CO[C@@H]1C[C@H](O)[C@@]1(C)C(=O)[C@H](O)C3=C(C)[C@@H](OC(=O)[C@H](O)[C@@H](NC(=O)OC(C)(C)C)c4ccccc4)C[C@@](O)([C@@H](OC(=O)c4ccccc4)[C@H]21)C3(C)C [Docetaxel] | − | − | 2.5 µM | 5000 nM | 10 | 
3 | Nc1nc(Cl)nc2c1ncn2[C@H]1C[C@H](O)[C@@H](CO)O1 [Cladribine] | − | − | 0.025 µM | 50 nM | 0.1 | 
4 | COc1cc2ncnc(Nc3ccc(F)c(Cl)c3)c2cc1OCCCN1CCOCC1 [Gefitinib] | + | + | 5.75 µM | 11500 nM |  | 
5 | O=c1[nH]cc(F)c(=O)[nH]1 [5-FU, 5-fluorouracil] | − | − | 4.5 µM | 9000 nM | 18 | 
6 | Nc1nc2[nH]cc(CCc3ccc(C(=O)N[C@@H](CCC(=O)O)C(=O)O)cc3)c2c(=O)[nH]1 [Pemetrexed] | − | − | 0.25 µg/mL | 0.5 µg/mL |  | EC50 [1]: 1 µg/mL
7 | CNC(=O)c1cc(Oc2ccc(NC(=O)Nc3ccc(Cl)c(C(F)(F)F)c3)cc2)ccn1 [Sorafenib] | + | + | 8 µM | 16000 nM | 32 | 
8 | CC[C@]1(O)C[C@H]2CN(CCc3c([nH]c4ccccc34)[C@@](C(=O)OC)(c3cc4c(cc3OC)N(C=O)[C@H]3[C@@](O)(C(=O)OC)[C@H](OC(C)=O)[C@]5(CC)C=CCN6CC[C@]43[C@@H]65)C2)C1 [Vincristine] | − | − | 3.5e-05 µM | .07 nM | 0.00014 | 
9 | Panitumumab | − | − | 0.75 µg/mL | 1.5 µg/mL |  | EC50 [1]: 3 µg/mL
10 | CC(=O)O[C@H]1C(=O)[C@@]2(C)[C@H]([C@H](OC(=O)c3ccccc3)[C@]3(O)C[C@H](OC(=O)[C@H](O)[C@@H](NC(=O)c4ccccc4)c4ccccc4)C(C)=C1C3(C)C)[C@]1(OC(C)=O)CO[C@@H]1C[C@@H]2O [Paclitaxel] | − | − | 0.0025 µM | 5 nM | 0.01 | 
11 | Nc1ccn([C@@H]2O[C@H](CO)[C@@H](O)C2(F)F)c(=O)n1 [Gemcitabine] | + | − | 0.5 µM | 1000 nM | 2 | 
12 | COc1cc([C@@H]2c3cc4c(cc3[C@@H](O[C@@H]3O[C@@H]5CO[C@@H](C)O[C@H]5[C@H](O)[C@H]3O)[C@H]3COC(=O)[C@H]23)OCO4)cc(OC)c1O [Etoposide] | − | − | 1.25 µM | 2500 nM | 5 | 
13 | [Se]=C=NCCCCc1ccccc1 [ISC-4] |  |  |  |  |  | ALT [2]: 29 ± 2 U/L; AST [2]: 221 ± 138 U/L; Alk. Phos. (alkaline phosphatase) [2]: 35 ± 10 U/L; BUN (blood urea nitrogen) [2]: 22 ± 1 mg/dL; Cl [2]: 107 ± 3 mmol/L; Creatinine [2]: 0.1 ± 0 mg/dL; Glucose [2]: 309 ± 8 mg/dL; K [2]: 4.8 ± .1 mmol/L; LDH (lactate dehydrogenase) [2]: 1074 ± 531 U/L; Na [2]: 155 ± 2 mmol/L; T. Bil (total bilirubin) [2]: 0.65 ± 0.07 mg/dL; Concentration at which ISC-4-induced sub-G1 content becomes apparent ([3]; colon cancer cell lines, 0, 1, 2, 4, 8, or 16 μM ISC-4, dose-dependent): > 8 µM; Sub-G1 content ([3]; synchronized HCT116 and HT-29 cells): modest increase in sub-G1 content; ISC-4-induced sub-G1 content on co-incubation with pan-caspase inhibitor zVAD-fmk (RKO cells): significantly inhibited; Sensitivity to ISC-4 treatment [4]: moderately sensitive
14 | COc1cccc2c1C(=O)c1c(O)c3c(c(O)c1C2=O)C[C@@](O)(C(=O)CO)C[C@@H]3O[C@H]1C[C@H](N)[C@H](O)[C@H](C)O1 [Doxorubicin] | ? | − | 16.25 µM | 32500 nM | 65 | 
15 | CCc1c2c(nc3ccc(OC(=O)N4CCC(N5CCCCC5)CC4)cc13)-c1cc3c(c(=O)n1C2)COC(=O)[C@]3(O)CC [Irinotecan] | − | − | 3.38 µM | 6750 nM | 13 | 
16 | N.N.[Cl][Pt][Cl] [Cisplatin] | − | + | 1.125 µM | 2250 nM | 4.5 | 
17 | CS(=O)(=O)CCNCc1ccc(-c2ccc3ncnc(Nc4ccc(OCc5cccc(F)c5)c(Cl)c4)c3c2)o1 [Lapatinib] | − | − | 1.75 µM | 3500 nM | 7 | 
18 | O=C1[O][Pt]2([NH][C@@H]3CCCC[C@H]3[NH]2)[O]C1=O [Oxaliplatin] | − | − | 0.075 µM | 150 nM | 0.3 | 
